Results from patent publication US20230279018A1, “AP[…] INHIBITION” (priority 2020, published 2023).

Assays:
[1] = target: T1, HscFRS (Homo sapiens, UniProt Q9Y285); test: malachite green-based aminoacylation assay, HscFRS; format: biochemical; settings: aminoacylation activity
T1 sequence (Q9Y285 1-508): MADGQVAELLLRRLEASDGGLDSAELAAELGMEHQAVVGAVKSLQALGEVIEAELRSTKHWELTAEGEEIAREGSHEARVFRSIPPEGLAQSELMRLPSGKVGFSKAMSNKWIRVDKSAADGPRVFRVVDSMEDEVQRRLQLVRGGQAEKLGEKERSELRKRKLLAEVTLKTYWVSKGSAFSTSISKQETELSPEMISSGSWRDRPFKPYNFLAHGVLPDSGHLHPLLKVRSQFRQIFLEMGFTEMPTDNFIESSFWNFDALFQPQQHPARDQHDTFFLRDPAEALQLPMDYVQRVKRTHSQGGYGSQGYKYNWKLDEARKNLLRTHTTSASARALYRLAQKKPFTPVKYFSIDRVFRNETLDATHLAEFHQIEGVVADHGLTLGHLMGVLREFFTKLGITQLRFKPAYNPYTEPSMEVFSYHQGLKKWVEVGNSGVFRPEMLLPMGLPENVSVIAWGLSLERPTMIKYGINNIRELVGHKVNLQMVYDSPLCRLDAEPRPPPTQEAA
T1 sequence (Q9NSD9 1-589 partner): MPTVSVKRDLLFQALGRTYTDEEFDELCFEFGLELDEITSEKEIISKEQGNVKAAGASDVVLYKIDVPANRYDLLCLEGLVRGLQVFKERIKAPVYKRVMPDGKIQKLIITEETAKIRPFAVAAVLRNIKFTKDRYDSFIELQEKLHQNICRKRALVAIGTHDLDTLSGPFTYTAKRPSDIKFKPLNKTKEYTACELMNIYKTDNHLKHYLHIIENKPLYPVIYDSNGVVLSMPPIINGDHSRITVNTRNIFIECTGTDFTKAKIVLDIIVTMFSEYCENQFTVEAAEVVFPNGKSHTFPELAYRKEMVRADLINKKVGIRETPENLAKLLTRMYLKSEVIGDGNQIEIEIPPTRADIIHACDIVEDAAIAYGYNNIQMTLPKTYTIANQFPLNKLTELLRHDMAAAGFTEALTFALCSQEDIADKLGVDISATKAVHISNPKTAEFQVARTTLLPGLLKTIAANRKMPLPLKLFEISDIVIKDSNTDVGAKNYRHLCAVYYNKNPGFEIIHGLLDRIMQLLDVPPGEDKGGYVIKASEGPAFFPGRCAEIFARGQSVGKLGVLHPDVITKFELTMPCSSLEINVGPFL
From the text: (§1) EC50 assays were run as described in Int'l Pub Nos. WO 2015070204, WO 2018175385, and Kato, N, et al. Nature 538 (2016): 344-349, which are hereby incorporated by reference in its entirety. The inhibition of the aminoacylation activity of Pf (Plasmodium falciparum), Pv (Plasmodium vivax), Hs (Human) and Pf-Mut (L550V) cFRS enzymes by Compound 1 are illustrated in FIG. 1.
(§2) The enzymatic activity of purified heterodimeric PfcFRS using malachite green-based aminoacylation assays with substrates L-Phe and ATP was also measured as described in Cestari, I. et al., J Biomol. Screen. 18 (2013): 490-497 and Kato, N, et al. Nature 538 (2016): 344-349, which are hereby incorporated by reference in its entirety. […] Enzymatic reactions (50 μl total volume) were performed in clear, flat-bottomed, 96-well plates (Costar 96-well standard microplates). The reaction mixture was incubated for 2 h at 37° C. The reaction was stopped by adding 12.5 μl of malachite green solution to the reaction mixture and levels of inorganic phosphate (Pi) were detected after incubation of 5 min at room temperature. Absorbance was the measured at 620 nm using a Spectramax M2 (Molecular Devices). Reactions without FRS enzyme were performed as background controls, values of which were subtracted from the reactions with enzyme. […]

[2] = target: T2, Pv (Plasmodium vivax) cFRS (Plasmodium vivax, UniProt A5K9S0); test: malachite green-based aminoacylation assay, PvcFRS; format: biochemical; settings: aminoacylation activity
T2 construct: Full-length PvcFRS was also purified according to the same protocol; His6 (encoded by vector pETM11); made in house; host or cells: E. coli strain B834
From the text: as §1, §2

[3] = target: T1, HscFRS; test: Surface Plasmon Resonance binding, HscFRS; settings: SPR, 25° C., PBS pH 7.4, 5% DMSO; read-out: cFRS Kd, Hs
Description: Surface Plasmon Resonance experiments to evaluate the binding of Compound 1 to proteins were carried out on a Biacore T200 instrument (GE Healthcare) at 25° C. The binding experiments were performed in buffer 10 mM phosphate buffered saline (PBS), pH 7.4, containing 5% dimethyl sulfoxide (DMSO). The flow system was primed with the running buffer before the initiation of the experiment. Both PfcFRS and HscFRS were immobilized to Sensor Chip CM5 by standard amine coupling chemistry using N-hydroxysuccinimide (NHS) and ethyl(dimethylaminopropyl) carbodiimide (EDC), to an immobilization level of approximately 1500 RU. The binding experiments were carried out in a single cycle kinetics mode. Compound 1 was serially diluted in running buffer, and injected at a flow rate of 60 μl min^−1 across both surface for 60 s and dissociation were set up for 120 s. The analysis was done using Biaevaluation (GE Healthcare) and GraphPad Prism 7 software (GraphPad Software Inc, USA). […] The equilibrium dissociation constants (Kd) were determined by plotting the measured response (Req) as a function of the analyte concentration. […] Measured sensograms illustrating the binding of various concentrations of Compound 1 to the protein are shown in FIG. 3B (PfcFRS) and 3C (HscFRS) including both the measured data and the 1:1 binding model fit.

T2 sequence (A5K9S0 whole entry): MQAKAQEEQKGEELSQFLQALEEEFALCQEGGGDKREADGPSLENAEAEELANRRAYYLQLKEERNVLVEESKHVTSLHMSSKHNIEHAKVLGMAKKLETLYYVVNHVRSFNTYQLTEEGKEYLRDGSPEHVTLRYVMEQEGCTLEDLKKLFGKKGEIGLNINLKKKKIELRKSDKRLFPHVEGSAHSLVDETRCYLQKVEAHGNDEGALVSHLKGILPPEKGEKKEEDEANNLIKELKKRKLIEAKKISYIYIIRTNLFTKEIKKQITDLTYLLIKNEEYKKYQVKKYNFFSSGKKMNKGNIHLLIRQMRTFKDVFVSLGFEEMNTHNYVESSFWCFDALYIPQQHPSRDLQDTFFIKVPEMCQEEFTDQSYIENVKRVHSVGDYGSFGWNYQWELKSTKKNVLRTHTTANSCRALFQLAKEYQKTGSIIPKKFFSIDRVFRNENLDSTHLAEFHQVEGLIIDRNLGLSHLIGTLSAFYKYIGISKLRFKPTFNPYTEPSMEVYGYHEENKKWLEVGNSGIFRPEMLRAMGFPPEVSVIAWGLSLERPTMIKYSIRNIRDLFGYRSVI
T2 sequence (A5K464 whole entry, further chain): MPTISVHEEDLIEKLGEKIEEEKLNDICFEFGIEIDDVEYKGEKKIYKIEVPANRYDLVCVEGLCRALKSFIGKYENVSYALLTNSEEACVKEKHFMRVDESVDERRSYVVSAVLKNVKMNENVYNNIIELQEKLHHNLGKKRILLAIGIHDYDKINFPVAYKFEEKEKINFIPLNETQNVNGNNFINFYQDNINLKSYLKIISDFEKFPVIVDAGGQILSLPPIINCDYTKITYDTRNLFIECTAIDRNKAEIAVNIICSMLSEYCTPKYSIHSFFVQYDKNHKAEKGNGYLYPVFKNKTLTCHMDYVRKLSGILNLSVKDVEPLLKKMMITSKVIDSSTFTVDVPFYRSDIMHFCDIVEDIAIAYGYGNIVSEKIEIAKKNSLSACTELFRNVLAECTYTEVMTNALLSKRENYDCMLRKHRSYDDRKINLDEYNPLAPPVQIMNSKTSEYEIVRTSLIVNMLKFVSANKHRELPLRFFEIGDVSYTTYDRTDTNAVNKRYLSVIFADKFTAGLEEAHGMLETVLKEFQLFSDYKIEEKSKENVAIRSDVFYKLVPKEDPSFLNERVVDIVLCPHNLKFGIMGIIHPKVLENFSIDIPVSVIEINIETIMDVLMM

COC[C@@H]1[C@H](c2ccc(C#Cc3ccccc3)cc2)[C@@H]2CN(C(=O)Nc3ccc(OC4CC4)cc3)C[C@@H](O)[C@@H](O)CN12 [Compound 1, (3S,4R,8R,9R,10S)—N-(4-cyclopropoxyphenyl)-3,4-dihydroxy-10-(methoxymethyl)-9-(4-(phenylethynyl)phenyl)-1,6-diazabicyclo[6.2.0]decane-6-carboxamide]
IC50 [1]: 12 µM
IC50 [2]: 0.025 µM
Kd [3]: 16 µM
